The source of these data is article PMC5418920 (The Open Medicinal Chemistry Journal, 2017).

This test deals with ALR2 (Rattus norvegicus, UniProt P07943). As to the kind of experiment: ALR2 enzymatic inhibition, spectrophotometric NADPH oxidation at 340 nm. Format: biochemical.

`CC1(C)CC2(CN(CC(=O)O)CCO2)c2cc(Br)ccc2O1` (centres unmarked) [Compound 10, 2-(6-Bromo-2,2-dimethylspiro[chroman-4,2'-morpholin]-4'-yl) acetic acid] yielded an IC50 of 4.17 µM.
The same measure, in the same setting: the result for `COc1cccc(COc2ccccc2C2(C)CN(CC(=O)O)C(=O)O2)c1` (centres unmarked) [Compound 11, 2-(5-(2-((3-Methoxybenzyl)oxy)phenyl)-5-methyl-2-oxooxazolidin-3-yl)acetic acid] reads 4.13 µM.
The same measure, in the same setting: the same measure for `CC1(C)CC2(CN(CC(=O)O)C(=O)O2)c2cc(Br)ccc2O1` (centres unmarked) [Compound 6, 2-(6-Bromo-2,2-dimethyl-2'-oxospiro[chroman-4,5'-oxazolidin]-3'-yl) acetic acid]: 17.3 µM.
The same measure, in the same setting: the result for `CC1(C)CC2(CN(CC(=O)O)C(=O)O2)c2ccccc2O1` (centres unmarked) [Compound 5, 2-(2,2-Dimethyl-2'-oxospiro[chroman-4,5'-oxazolidin]-3'-yl) acetic acid] reads 42.3 µM.
Compound `COc1ccc(C2(C)CC3(CN(CC(=O)O)C(=O)CO3)c3cc(Br)ccc3O2)cc1` (centres unmarked) [Compound 4, 2-(6-Bromo-2-(4-methoxyphenyl)-2-methyl-5'-oxospiro[chroman-4,2'-morpholin]-4'-yl) acetic acid] had an IC50 of 4.97 µM. Moreover, the “fold reduction in ARL2 inhibitory efficacy compared to parent 2” value (IC50 4.97 vs 0.58 μM) is about 8 fold.
Take `COc1cc(COc2ccccc2C2(C)CN(CC(=O)O)C(=O)O2)cc(OC)c1OC` (centres unmarked) [Compound 13, 2-(5-Methyl-2-oxo-5-(2-((3,4,5-trimethoxybenzyl)oxy)phenyl)oxazolidin-3-yl)acetic acid]: the IC50 came out at 3.19 µM. This lies in the single-digit micromolar range.
In turn, `CC1(C)CC2(CN(CC(=O)O)C(=O)CO2)c2ccccc2O1` (centres unmarked) [Compound 7, 2-(2,2-Dimethyl-5'-oxospiro[chroman-4,2'-morpholin]-4'-yl) acetic acid] had an IC50 of 2 µM. This IC50 is about 1.6-fold lower than that of the compound before.
